Test results from patent US12012399B2, “Microbiocidal quinoline dihydro-(thiazine)oxazine derivatives” (priority 2018, dated 2024).

Key:
[1] = tested on: Monographella nivalis (Microdochium nivale); test: Monographella nivalis (Microdochium nivale) / liquid culture (foot rot cereals); format: cell-based; conditions: compared to untreated control, growth inhibition determined photometrically 4-5 days after application
[2] = tested on: Botryotinia fuckeliana (Botrytis cinerea); test: Botryotinia fuckeliana (Botrytis cinerea) / liquid culture (gray mould); format: cell-based; conditions: 72 h, compared to untreated control, growth inhibition determined photometrically 3-4 days after application
Fusarium culmorum = test: microbe, parasite or virus in culture; format: cell-based; conditions: read-out: control of Fusarium culmorum
[3] = tested on: Glomerella lagenarium (Colletotrichum lagenarium); test: Glomerella lagenarium (Colletotrichum lagenarium) / liquid culture (anthracnose); format: cell-based; conditions: Colletotrichum orbiculare, compared to untreated control, growth inhibition measured photometrically 3-4 days after application
[4] = tested on: Mycosphaerella graminicola (Septoria tritici); test: Mycosphaerella graminicola (Septoria tritici) / liquid culture (Septoria blotch); format: cell-based; conditions: Zymoseptoria tritici, compared to untreated control, growth inhibition determined photometrically 4-5 days after application
Sclerotinia sclerotiorum = test: microbe, parasite or virus in culture; format: cell-based; conditions: read-out: control of Sclerotinia sclerotiorum
[5] = tested on: Magnaporthe grisea (Pyricularia oryzae); test: microbe, parasite or virus in culture; format: cell-based; conditions: read-out: control of Magnaporthe grisea

In the case of CC1CC(Cc2ccccc2)N=C(c2cnc3c(F)c(F)ccc3c2)O1 (single isomer, unassigned) [E-25, 4-benzyl-2-(7,8-difluoro-3-quinolyl)-6-methyl-5,6-dihydro-4H-1,3-oxazine], the inhibition of growth at 20 ppm [1] is reported as no less than 80%, the inhibition of growth at 20 ppm [2] is reported as no less than 80% and the inhibition of growth at 20 ppm (Fusarium culmorum) is reported as no less than 80%. The inhibition of growth at 20 ppm [3] was no less than 80% and the inhibition of growth at 20 ppm [4] was no less than 70%.

For CC1(CCl)CC(Cc2ccccc2)N=C(c2cnc3c(F)c(F)ccc3c2)O1 (stereo not shown) [E-1, 4-benzyl-6-(chloromethyl)-2-(7,8-difluoro-3-quinolyl)-6-methyl-4,5-dihydro-1,3-oxazine], the inhibition of growth at 20 ppm [1] was no less than 80%, the inhibition of growth at 20 ppm [2] was no less than 80% and the inhibition of growth at 20 ppm (Fusarium culmorum) was no less than 80%. It also gave an inhibition of growth at 20 ppm [4] of no less than 70%.

Compound CC1(C)CC(Cc2ccccc2)N=C(c2cnc3c(C#N)cccc3c2)O1 (stereo not shown) [E-2, 3-(4-benzyl-6,6-dimethyl-4,5-dihydro-1,3-oxazin-2-yl)quinoline-8-carbonitrile] has an inhibition of growth at 20 ppm [1] of no less than 80%, an inhibition of growth at 20 ppm (Fusarium culmorum) of no less than 80% and an inhibition of growth at 20 ppm [4] of no less than 70%.

Compound CC1(C)CC(Cc2ccccc2)N=C(c2cnc3c(Cl)cccc3c2)O1 (stereo not shown) [E-3, 4-benzyl-2-(8-chloro-3-quinolyl)-6,6-dimethyl-4,5-dihydro-1,3-oxazine] has an inhibition of growth at 20 ppm [1] of no less than 80%, an inhibition of growth at 20 ppm [2] of no less than 80% and an inhibition of growth at 20 ppm [4] of no less than 70%. For the same compound, the melting point was 150 to 152 °C.

Cc1cccc2cc(C3=NC(Cc4ccccc4)CC(C)(C)O3)cnc12 (stereo not shown) [E-4, 4-benzyl-6,6-dimethyl-2-(8-methyl-3-quinolyl)-4,5-dihydro-1,3-oxazine] gave an inhibition of growth at 20 ppm [1] of no less than 80%, an inhibition of growth at 20 ppm [2] of no less than 80% and an inhibition of growth at 20 ppm [4] of no less than 70%. The melting point was 120 to 122 °C.

With CC1(C)CC(Cc2ccccc2)N=C(c2cnc3ccccc3c2)O1 (stereo not shown) [E-5, 4-benzyl-6,6-dimethyl-2-(3-quinolyl)-4,5-dihydro-1,3-oxazine] the inhibition of growth at 20 ppm [1] was no less than 80%, the inhibition of growth at 20 ppm [2] was no less than 80% and the inhibition of growth at 20 ppm (Fusarium culmorum) was no less than 80%. It also gave an inhibition of growth at 20 ppm [3] of no less than 80% and an inhibition of growth at 20 ppm [4] of no less than 70%.

CC1(C)CC(Cc2ccccc2)N=C(c2cnc3c(F)c(F)ccc3c2)S1 (stereo not shown) [E-6, 4-benzyl-2-(7,8-difluoro-3-quinolyl)-6,6-dimethyl-4,5-dihydro-1,3-thiazine] showed an inhibition of growth at 20 ppm [1] of no less than 80%, an inhibition of growth at 20 ppm [2] of no less than 80% and an inhibition of growth at 20 ppm (Fusarium culmorum) of no less than 80%. It also gave an inhibition of growth at 20 ppm [3] of no less than 80% and a melting point of 153 to 155 °C.

In the case of CC1(Cc2ccccc2)CC(C)(C)SC(c2cnc3c(F)cccc3c2)=N1 (stereo not shown) [E-7, 4-benzyl-2-(8-fluoro-3-quinolyl)-4,6,6-trimethyl-5H-1,3-thiazine], the inhibition of growth at 20 ppm [1] is reported as no less than 80%, the inhibition of growth at 20 ppm [2] is reported as no less than 80% and the inhibition of growth at 20 ppm (Fusarium culmorum) is reported as no less than 80%. It also gave an inhibition of growth at 20 ppm (Sclerotinia sclerotiorum) of no less than 80%, an inhibition of growth at 20 ppm [3] of no less than 80% and an inhibition of growth at 20 ppm [4] of no less than 70%. It also gave an inhibition of growth at 20 ppm [5] of no less than 80%.

For CC1(C)CC(Cc2ccccc2)N=C(c2cnc3c(F)c(F)ccc3c2)O1 (stereo not shown) [E-8, 4-benzyl-2-(7,8-difluoro-3-quinolyl)-6,6-dimethyl-4,5-dihydro-1,3-oxazine], the inhibition of growth at 20 ppm [3] was no less than 80% and the melting point was 93 to 96 °C.

CCC1(C)CC(C)(Cc2ccccc2)N=C(c2cnc3c(F)cccc3c2)O1 (stereo not shown) [E-9, 4-benzyl-6-ethyl-2-(8-fluoro-3-quinolyl)-4,6-dimethyl-5H-1,3-oxazine] showed an inhibition of growth at 20 ppm [1] of no less than 80%, an inhibition of growth at 20 ppm [2] of no less than 80% and an inhibition of growth at 20 ppm (Fusarium culmorum) of no less than 80%. It also gave an inhibition of growth at 20 ppm (Sclerotinia sclerotiorum) of no less than 80%, an inhibition of growth at 20 ppm [3] of no less than 80% and an inhibition of growth at 20 ppm [4] of no less than 70%. It also gave an inhibition of growth at 20 ppm [5] of no less than 80%.

Work on C[C@@]1(Cc2ccccc2)C[C@](C)(CCl)OC(c2cnc3c(F)cccc3c2)=N1 [E-11, (4R,6R)-4-benzyl-6-(chloromethyl)-2-(8-fluoro-3-quinolyl)-4,6-dimethyl-5H-1,3-oxazine] yielded an inhibition of growth at 20 ppm [1] of no less than 80%, an inhibition of growth at 20 ppm [2] of no less than 80% and an inhibition of growth at 20 ppm (Fusarium culmorum) of no less than 80%. It also gave an inhibition of growth at 20 ppm [3] of no less than 80%, an inhibition of growth at 20 ppm [4] of no less than 70% and an inhibition of growth at 20 ppm [5] of no less than 80%.

CC1(C)CC(Cc2ccccc2)(C(F)(F)F)N=C(c2cnc3c(F)cccc3c2)O1 (stereo not shown) [E-12, 4-benzyl-2-(8-fluoro-3-quinolyl)-6,6-dimethyl-4-(trifluoromethyl)-5H-1,3-oxazine] showed an inhibition of growth at 20 ppm [1] of no less than 80%, an inhibition of growth at 20 ppm [2] of no less than 80% and an inhibition of growth at 20 ppm [3] of no less than 80%. For the same compound, the inhibition of growth at 20 ppm [5] was no less than 80%.

CC1(C)CC(C)(C(F)(F)c2ccccc2)N=C(c2cnc3c(F)cccc3c2)O1 (stereo not shown) [E-14, 4-[difluoro(phenyl)methyl]-2-(8-fluoro-3-quinolyl)-4,6,6-trimethyl-5H-1,3-oxazine] showed an inhibition of growth at 20 ppm [1] of no less than 80%, an inhibition of growth at 20 ppm [2] of no less than 80% and an inhibition of growth at 20 ppm [3] of no less than 80%. For the same compound, the inhibition of growth at 20 ppm [4] was no less than 70%, the inhibition of growth at 20 ppm [5] was no less than 80% and the melting point was 101 to 105 °C.

Cc1c(C2=NC(C)(Cc3ccccc3)CC(C)(C)O2)cnc2c(F)cccc12 (stereo not shown) [E-15, 4-benzyl-2-(8-fluoro-4-methyl-3-quinolyl)-4,6,6-trimethyl-5H-1,3-oxazine] showed an inhibition of growth at 20 ppm [1] of no less than 80%, an inhibition of growth at 20 ppm [2] of no less than 80% and an inhibition of growth at 20 ppm [3] of no less than 80%. It also gave an inhibition of growth at 20 ppm [4] of no less than 70% and an inhibition of growth at 20 ppm [5] of no less than 80%.

For CC1(Cc2ccccc2)CC(C)(C)OC(c2cnc3c(F)cccc3c2)=N1 (stereo not shown) [E-17, 4-benzyl-2-(8-fluoro-3-quinolyl)-4,6,6-trimethyl-5H-1,3-oxazine], the inhibition of growth at 20 ppm [1] was no less than 80%, the inhibition of growth at 20 ppm [2] was no less than 80% and the inhibition of growth at 20 ppm (Fusarium culmorum) was no less than 80%. The inhibition of growth at 20 ppm [3] was no less than 80%, the inhibition of growth at 20 ppm [4] was no less than 70% and the inhibition of growth at 20 ppm [5] was no less than 80%. The melting point was 115 to 116 °C.

Work on CC1(C)CC(Cc2ccc(F)cc2)N=C(c2cnc3c(F)c(F)ccc3c2)O1 (stereo not shown) [E-18, 2-(7,8-difluoro-3-quinolyl)-4-[(4-fluorophenyl)methyl]-6,6-dimethyl-4,5-dihydro-1,3-oxazine] yielded an inhibition of growth at 20 ppm [1] of no less than 80%, an inhibition of growth at 20 ppm [2] of no less than 80% and an inhibition of growth at 20 ppm (Sclerotinia sclerotiorum) of no less than 80%. It also gave an inhibition of growth at 20 ppm [4] of no less than 70%, an inhibition of growth at 20 ppm [5] of no less than 80% and a melting point of 118 to 121 °C.

In the case of Fc1ccc2cc(C3=NC(Cc4ccccc4)CC(CI)O3)cnc2c1F (stereo not shown) [E-26, 4-benzyl-2-(7,8-difluoro-3-quinolyl)-6-(iodomethyl)-5,6-dihydro-4H-1,3-oxazine], the inhibition of growth at 20 ppm [2] is reported as no less than 80%, the inhibition of growth at 20 ppm (Fusarium culmorum) is reported as no less than 80% and the melting point is reported as 137 to 139 °C.

For N#Cc1c(F)ccc2cc(C3=NC(Cc4ccccc4)CC4(CCCC4)O3)cnc12 (stereo not shown) [E-27, 3-(9-benzyl-6-oxa-8-azaspiro[4.5]dec-7-en-7-yl)-7-fluoro-quinoline-8-carbonitrile], the inhibition of growth at 20 ppm [2] was no less than 80%.

Compound CC1(C)CC(Cc2ccccc2)N=C(c2cnc3c(C#N)c(F)ccc3c2)O1 (stereo not shown) [E-28, 3-(4-benzyl-6,6-dimethyl-4,5-dihydro-1,3-oxazin-2-yl)-7-fluoro-quinoline-8-carbonitrile] has an inhibition of growth at 20 ppm [1] of no less than 80%, an inhibition of growth at 20 ppm [2] of no less than 80% and an inhibition of growth at 20 ppm [5] of no less than 80%. For the same compound, the melting point was 126 to 133 °C.

Compound CC1(C)CC(Cc2ccccc2)N=C(c2cnc3c(F)c(Cl)ccc3c2)O1 (stereo not shown) [E-29, 4-benzyl-2-(7-chloro-8-fluoro-3-quinolyl)-6,6-dimethyl-4,5-dihydro-1,3-oxazine] has an inhibition of growth at 20 ppm [1] of no less than 80%, an inhibition of growth at 20 ppm [3] of no less than 80% and an inhibition of growth at 20 ppm [4] of no less than 70%. For the same compound, the melting point was 135 to 137 °C.

Compound CC1(C)CC(Cc2ccccc2)N=C(c2cc3cccc(F)c3nc2F)O1 (stereo not shown) [E-30, 4-benzyl-2-(2,8-difluoro-3-quinolyl)-6,6-dimethyl-4,5-dihydro-1,3-oxazine] has an inhibition of growth at 20 ppm [1] of no less than 80%, an inhibition of growth at 20 ppm [2] of no less than 80% and an inhibition of growth at 20 ppm (Fusarium culmorum) of no less than 80%. For the same compound, the inhibition of growth at 20 ppm [4] was no less than 70%, the inhibition of growth at 20 ppm [5] was no less than 80% and the melting point was 105 to 107 °C.

CC1(C)CC(Cc2ccccc2)N=C(c2cnc3cc(F)ccc3c2)O1 (stereo not shown) [E-32, 4-benzyl-2-(7-fluoro-3-quinolyl)-6,6-dimethyl-4,5-dihydro-1,3-oxazine] gave an inhibition of growth at 20 ppm [1] of no less than 80%, an inhibition of growth at 20 ppm [2] of no less than 80% and an inhibition of growth at 20 ppm (Fusarium culmorum) of no less than 80%. For the same compound, the inhibition of growth at 20 ppm [4] was no less than 70%.

For CC1(C)CC(Cc2ccccc2)N=C(c2cnc3cc(Cl)ccc3c2)O1 (stereo not shown) [E-33, 4-benzyl-2-(7-chloro-3-quinolyl)-6,6-dimethyl-4,5-dihydro-1,3-oxazine], the inhibition of growth at 20 ppm [1] was no less than 80% and the inhibition of growth at 20 ppm [4] was no less than 70%.

In the case of CC1(C)CC(Cc2ccccc2)N=C(c2cnc3c(F)c(C#N)ccc3c2)O1 (stereo not shown) [E-34, 3-(4-benzyl-6,6-dimethyl-4,5-dihydro-1,3-oxazin-2-yl)-8-fluoro-quinoline-7-carbonitrile], the inhibition of growth at 20 ppm [1] is reported as no less than 80% and the inhibition of growth at 20 ppm [3] is reported as no less than 80%.

In the case of Fc1ccc2cc(C3=NC(Cc4ccccc4)CC4(CCCC4)O3)cnc2c1Cl (stereo not shown) [E-35, 9-benzyl-7-(8-chloro-7-fluoro-3-quinolyl)-6-oxa-8-azaspiro[4.5]dec-7-ene], the inhibition of growth at 20 ppm [1] is reported as no less than 80%, the inhibition of growth at 20 ppm [2] is reported as no less than 80% and the inhibition of growth at 20 ppm [4] is reported as no less than 70%. It also gave a melting point of 150 to 151 °C.

With CC1(C)CC(Cc2ccccc2)N=C(c2cc3cccc(F)c3nc2Cl)O1 (stereo not shown) [E-36, 4-benzyl-2-(2-chloro-8-fluoro-3-quinolyl)-6,6-dimethyl-4,5-dihydro-1,3-oxazine] the inhibition of growth at 20 ppm [4] was no less than 70%.

CC1(Cc2ccccc2)CC(C)(C)OC(c2cnc3c(F)cccc3c2)=N1 (stereo not shown) [F-1] gave a melting point of 109 to 111 °C.

CC1(Cc2ccccc2)CC(C)(C)OC(c2cnc3c(F)cccc3c2)=N1 (stereo not shown) [F-2] gave an inhibition of growth at 20 ppm (Sclerotinia sclerotiorum) of no less than 80% and a melting point of 111 to 112 °C.

Work on CC1(C)CC(Cc2ccccc2)N=C(c2cnc3c(F)c(F)ccc3c2)O1 (stereo not shown) [F-6] yielded a melting point of 102 to 105 °C.
